Data on 76 compounds can be found in the CATMoS acute toxicity set (Mansouri et al. 2021).

This data set in a line: GHS categories as the set defines them, by LD50: 1 up to 5, 2 up to 50, 3 up to 300, 4 up to 2000, 5 above 2000 mg/kg. Conditions: rat; in vivo; po.
`C=C(C=CCC(O)C(O)C(O)CC=CC=CC(O)CC1OC(CC(O)C(O)CC2OC(C(O)C(O)CCC(O)C=CC(C)C(O)CC3(O)OC(CC(O)CCCCCCCC45CC(C)CC(C)(O4)C(CC(C)CCCCCC(O)C(O)C(O)C(O)C(O)C4OC(CC(O)C(O)C(C)=CC(O)CC(C)C(O)C(=O)NC=CC(=O)NCCCO)C(O)C(O)C4O)O5)C(O)C(O)C3O)CC(O)C2O)C(O)C(O)C1O)CCC(O)C(O)C(O)C(C)CC1OC(C=CC(O)C(O)CC2CC3CC(O2)C(CCC2OC(CN)CC2O)O3)C(O)C(O)C1O` (stereo unspecified) had a GHS category of 1.
The result for `O=C(O)C1CNC1` reads 5; that for `O=C(O)C(O)C(O)C(O)C(O)C(O)CO` (stereo unspecified), 5.
Regarding `COc1ccccc1OCCNCC(O)c1ccc(C)c(S(N)(=O)=O)c1` (stereo unspecified), the GHS category was determined as 5.
`Cc1ccc(C(=O)NS(=O)(=O)c2ccc(N)cc2)cc1C` had a GHS category of 5.
Compound `COCC1=C(C(=O)OC(C)OC(=O)OC(C)C)N2C(=O)[C@@H](NC(=O)/C(=N\OC)c3csc(N)n3)[C@H]2SC1` (stereo partly specified) displayed a GHS category of 5.
The result for `O=P(Oc1ccccc1)(Oc1ccccc1)Oc1ccccc1-c1ccccc1` reads 5.
In the case of `CC(C)(O/N=C(\C(=O)N[C@@H]1C(=O)N2C(C(=O)[O-])=C(C[n+]3ccccc3)CS[C@H]12)c1csc(N)n1)C(=O)O`, the GHS category was found to be 5.
As to `CCOC(=O)c1ccc(NC(=O)CC)cc1NC(=O)c1ccc(C(=O)O)cc1`, the GHS category worked out at 5.
Take `O=C(Cc1cccs1)N[C@@H]1C(=O)N2C(C(=O)O)=C(CO)CS[C@H]12`: the GHS category came out at 5.
On to `CC(=O)Nc1ccc(/N=N/c2c(S(=O)(=O)O)cc3cc(NC(=O)Nc4ccc5c(O)c(/N=N/c6ccccc6)c(S(=O)(=O)O)cc5c4)ccc3c2O)cc1`, for which the GHS category was 5.
Compound `CCCCCCCCCCCCCCCCCCCN` gave a GHS category of 5.
`CCOC[C@@H]1CO[C@@](Cn2ccnc2)(c2cc3cc(Cl)cc(Cl)c3o2)O1` gave a GHS category of 4.
With `C[N+](C)(C)CC(=O)[O-]`, the GHS category turned out to be 5.
Compound `CCCCCCOC(=O)CC(C)C` returned a GHS category of 5.
For the compound `CC(CO)C1CCCCCCCCCCC1` (stereo unspecified), the GHS category amounted to 5.
The compound `CCOC(=O)C1=C(C)C=CCC1(C)C` gave a GHS category of 5.
Take `O=C(O)COc1nn(-c2cccc(C(F)(F)F)c2)c2ncccc12`: the GHS category is reported as 4.
With `Nc1cc(C(=O)NCC(O)CO)cc(C(=O)NCC(O)CO)c1` (stereo unspecified), the GHS category amounted to 5.
The result for `CCCCOC(=O)c1ccc(C(=O)OCCCC)cc1` reads 5; that for `Cc1cccn2c(=O)c(C(=O)NC3CCCC3)cnc12`, 3.
In the case of `CN(CCCN1c2ccccc2CCc2ccccc21)CC(=O)c1ccc(Cl)cc1`, the GHS category is 4.
`CCC(=O)OCC(=O)[C@@]1(OC(=O)CC)[C@@H](C)C[C@H]2[C@@H]3CCC4=CC(=O)C=C[C@]4(C)[C@@]3(F)[C@@H](O)C[C@@]21C`: the GHS category was determined as 5.
The compound `CC(c1ccccc1)C1Nc2cc(Cl)c(S(N)(=O)=O)cc2S(=O)(=O)N1` (stereo unspecified) had a GHS category of 5.
Compound `Nc1ccc2cc(S(=O)(=O)O)c(/N=N/c3ccc(-c4ccc(/N=N/c5ccc(O)c(C(=O)O)c5)cc4)cc3)c(O)c2c1` showed a GHS category of 5.
`CC(C)(C)[C@H](NC(=O)OCc1ccccc1)C(=O)O` showed a GHS category of 4.
As for `CC(=O)COc1nn(-c2cccc(C(F)(F)F)c2)c2ncccc12`, the GHS category worked out at 4.
Turning to `CCCC1O[C@@H]2C[C@H]3[C@@H]4CCC5=CC(=O)C=C[C@]5(C)[C@H]4[C@@H](O)C[C@]3(C)[C@]2(C(=O)CO)O1` (stereo partly specified), the GHS category was determined as 5.
For `O=C(Nc1ccc(Cl)cc1)Nc1ccc(Cl)c(Cl)c1`, the GHS category is 5.
As to `CCOC(=O)c1cnn(-c2cccc(C)c2)c1C#N`, the GHS category stood at 4.
For `COc1cc(C(=O)OCCCN2CCCN(CCCOC(=O)c3cc(OC)c(OC)c(OC)c3)CC2)cc(OC)c1OC`, the GHS category came out at 5.
With `O=P(OCC(CBr)(CBr)CBr)(OCC(CBr)(CBr)CBr)OCC(CBr)(CBr)CBr`, the GHS category is 5.
`CCOC(=O)C(=O)Nc1cc(SCCOC)nc(C)n1` showed a GHS category of 4.
For the compound `CC(C)(C)C1=CC(=Cc2ccccc2)C=C(C(C)(C)C)C1=O`, the GHS category is listed as 5.
In the case of `O=S(=O)(O)c1ccc(N2N=C(c3ccc(Cl)cc3)CC2c2ccccc2)cc1` (stereo unspecified), the GHS category was 5.
For `CC1OC(Cn2cncn2)(c2cc3cc(Cl)cc(Cl)c3o2)OC1C` (stereo unspecified), the GHS category was found to be 4.
For the compound `CCc1ccc(CC)cc1`, the GHS category is reported as 5.
`CC1(C(=O)Nc2ccc(O)c(Cl)c2Cl)CCCCC1` registered a GHS category of 5.
For `CC(C)CC(=O)O[C@@H]1C[C@@H]2CC[C@@]1(C)C2(C)C` (racemic), the GHS category is reported as 5.
As for `CCSc1nc(N)c2c(C)coc2n1`, the GHS category came out at 5.
`O=C1C[N+]([O-])=C(c2ccccc2)c2cc(Cl)ccc2N1` had a GHS category of 5.
As to `CCN(C)c1cc(=O)c2c(ccc3ccccc32)o1`, the GHS category worked out at 4.
Compound `CCCCCCC(O)CCCCCCCCCCC(=O)OCC(COC(=O)CCCCCCCCCCC(O)CCCCCC)OC(=O)CCCCCCCCCCC(O)CCCCCC` (stereo unspecified) registered a GHS category of 5.
The result for `CC1=C(/C=C/C(C)=C/C=C/C(C)=C\C(=O)O)C(C)(C)CCC1` reads 5.
In turn, `CC1CC(C)C(C)C(C)C1` (stereo unspecified) showed a GHS category of 5.
The compound `CNS(=O)(=O)c1ccccc1-c1nnc(N)s1` came in with a GHS category of 5.
The compound `O=c1nc2nc[nH]n2c(CO)c1Cc1ccc(-c2ccccc2-c2nn[nH]n2)cc1` displayed a GHS category of 4.
On to `CCCCN(c1nc(NCCCN(CCN(CCCNc2nc(N(CCCC)C3CC(C)(C)N(C)C(C)(C)C3)nc(N(CCCC)C3CC(C)(C)N(C)C(C)(C)C3)n2)c2nc(N(CCCC)C3CC(C)(C)N(C)C(C)(C)C3)nc(N(CCCC)C3CC(C)(C)N(C)C(C)(C)C3)n2)c2nc(N(CCCC)C3CC(C)(C)N(C)C(C)(C)C3)nc(N(CCCC)C3CC(C)(C)N(C)C(C)(C)C3)n2)nc(N(CCCC)C2CC(C)(C)N(C)C(C)(C)C2)n1)C1CC(C)(C)N(C)C(C)(C)C1`, for which the GHS category is 5.
In turn, `CN1C(=O)COc2cc(C(=O)C=Cc3ccccc3)ccc21` came in with a GHS category of 5.
For the compound `CCC(C)C(NC(=O)C(Cc1cnc[nH]1)NC(=O)C(CCSC)NC(=O)C(CS)NC(=O)C(NC(=O)CNC(=O)CNC(=O)C(CC(N)=O)NC(=O)C(CC(C)C)NC(=O)C(CS)NC(=O)C(Cc1ccc(O)cc1)NC(=O)CNC(=O)C(CC(=O)O)NC(=O)C(Cc1ccc(O)cc1)NC(=O)C(CO)NC(=O)C(CO)NC(=O)C1CCCN1C(=O)C(CS)NC(=O)CNC(=O)C1CCCN1C(=O)C(Cc1ccc(O)cc1)NC(=O)C(CO)NC(=O)C(N)CC(N)=O)C(C)C)C(=O)NC(CCC(=O)O)C(=O)NC(CO)C(=O)NC(CC(C)C)C(=O)NC(CC(=O)O)C(=O)NC(CO)C(=O)NC(Cc1ccc(O)cc1)C(=O)NC(C(=O)NC(CS)C(=O)NC(CC(N)=O)C(=O)NC(CS)C(=O)NC(C(=O)NC(C(=O)NCC(=O)NC(Cc1ccc(O)cc1)C(=O)NC(CO)C(=O)NCC(=O)NC(CC(=O)O)C(=O)NC(CCCNC(=N)N)C(=O)NC(CS)C(=O)NC(CCC(N)=O)C(=O)NC(C(=O)NC(CCCNC(=N)N)C(=O)NC(CC(=O)O)C(=O)NC(CC(C)C)C(=O)NC(CCCNC(=N)N)C(=O)NC(Cc1c[nH]c2ccccc12)C(=O)NC(Cc1c[nH]c2ccccc12)C(=O)NC(CCC(=O)O)C(=O)NC(CC(C)C)C(=O)NC(CCCNC(=N)N)C(=O)O)C(C)O)C(C)CC)C(C)C)C(C)O` (stereo unspecified), the GHS category is on record as 5.
Regarding `O=c1oc2ccc(Cl)cc2n1CO`, the GHS category was determined as 4.
Consider `Cc1ccc(C(=O)Nc2ccc(S(=O)(=O)O)cc2)cc1[N+](=O)[O-]`, for which the GHS category is recorded as 5.
In turn, `CCCCCCCCOc1ccccc1C(=O)Nc1ccc(C(=O)OCC[N+](C)(CC)CC)cc1` registered a GHS category of 4.
For the compound `Cc1ncc(CSSCc2cnc(C)c(O)c2CN)c(CN)c1O`, the GHS category is given as 5.
The result for `COc1ccc(C2NC(=O)CCS2)cc1OC` (stereo unspecified) reads 5; that for `CC(C)=CCCC(C)=C1CC=C(C)CC1`, 5; that for `CN1C2CCC1CC(OS(C)(=O)=O)C2` (stereo unspecified), 4.
The result for `OC1(c2cccs2)c2ccccc2C2=NCCN21` (stereo unspecified) reads 4; that for `CCCCCCC(O)CCO` (stereo unspecified), 5; that for `CCCCCCCCC(=O)OCC(CC)(COC(=O)CCCCCCCC)COC(=O)CCCCCCCC`, 5.
The result for `CCCCCCC#CC(OC)OC` reads 5; that for `Cc1cc(C(C)(C)C)c(O)c(C)c1Cn1c(=O)n(Cc2c(C)cc(C(C)(C)C)c(O)c2C)c(=O)n(Cc2c(C)cc(C(C)(C)C)c(O)c2C)c1=O`, 5.
`NC(=O)N(CO)CO` had a GHS category of 5.
With `C=CC(C)(O)CCC=C(C)CCC=C(C)C` (stereo unspecified), the GHS category is on record as 5.
The result for `CNCc1ccc(CSCCN/C(=N/S(C)(=O)=O)NCC(O)c2ccc(O)cc2)o1` (stereo unspecified) reads 5; that for `CC(C)(C)c1ccc(C=O)cc1`, 4; that for `O=C(c1ccc(Oc2ccccc2)cc1)c1ccc(C(=O)c2ccc(Oc3ccccc3)cc2)cc1`, 5.
`CCC(=O)N[C@H]1CCc2nc(N)sc2C1`: the GHS category was 5.
On to `CCOc1cc(NCCCN(C)C)c(=O)n(-c2ccccc2)n1`, for which the GHS category worked out at 5.
Regarding `CCN(C(=O)CCCCc1nnnn1-c1ccccc1)C1CCCCC1`, the GHS category is listed as 4.
As to `C[C@@H]1CC[C@@]2(OC1)O[C@H]1[C@@H](O)[C@H]3[C@@H]4CC[C@H]5C[C@@H](O[C@@H]6O[C@H](CO)[C@H](O[C@@H]7O[C@H](CO)[C@@H](O)[C@H](O[C@@H]8OC[C@@H](O)[C@H](O)[C@H]8O)[C@H]7O[C@@H]7O[C@H](CO)[C@@H](O)[C@H](O[C@@H]8O[C@H](CO)[C@@H](O)[C@H](O)[C@H]8O)[C@H]7O)[C@H](O)[C@H]6O)[C@H](O)C[C@]5(C)[C@H]4CC[C@]3(C)[C@H]1[C@@H]2C`, the GHS category was 3.
Compound `C[C@@H]1CN(c2c(F)c(N)c3c(=O)c(C(=O)O)cn(C4CC4)c3c2F)C[C@H](C)N1` (racemic) displayed a GHS category of 5.
In turn, `CCc1cccc(OP(=O)(Oc2cccc(CC)c2)Oc2cccc(CC)c2)c1` registered a GHS category of 5.
The result for `NS(=O)(=O)C(F)(F)C(F)(F)C(F)(F)C(F)(F)C(F)(F)C(F)(F)C(F)(F)C(F)(F)F` reads 3; that for `Oc1cc(O)ncn1`, 5.
For the compound `CC(C)CC(=O)OCc1ccccc1`, the GHS category is 5.
